# Assay results reported in patent publication US20120004281A1, “RNA Interference Mediated Inhibition of the Nerve Growth Factor Beta Chain (NGFB) Gene Expression Using Short Interfering Nucleic Acid (siNA)” (Merck Sharp & Dohme Corp, priority 2009, published 2012).
# [invAb] = inverted abasic unit; m = 2'-O-methyl; r = 2'-OH (RNA); f = 2'-fluoro
# Columns and labels:
# NGFβ protein = test: NGFβ ELISA (protein knock-down in Calu-1 cells); type: cell-based, human; details: for Max % Protein Reduction at 3 nM: 3 nM siNA, relative to negative universal control siNA (UC3); for IC50: 200 fM to 3 nM siNA, ELISA
# Experimental: In a 96-well plate, 5,000 Calu-1cells/well were seeded in 100 uL of complete growth media and incubated overnight at 37° C. with 5% CO2. The cells were transfected with siNAs using RNAiMax (Invitrogen, Cat# 13778-150); final concentration of siNAs is 3e-09, le-09, 3e-10, le-10, 4e-11, le-11, 4e-12, le-12, 5e-13, and 2e-13 M. The amount of RNAiMax in each well is 0.3 uL. The siNAs were incubated for 24 hours. The medium was replaced with 100 uL of fresh complete growth medium. The cells were incubated for 48 hours. 80 uL of the medium from each well was collected into a separate 96-well plate. The samples were frozen immediately at −80° C. until ready the assay was ready to be performed.
# ELISA was performed using NGF Emax® ImmunoAssay System (Promega, Cat # G7630) according to the manufaturer's instructions. The samples were diluted 1:2 with the blocking buffer provided in the kit. The samples absorbance was recorded at 450 nm on a SpectraMax plate reader (Molecular Devices) within 30 minutes of stopping the reaction.
# Sigmaplot was used to determine IC50 values for each of the tested siRNAs using a sigmoidal dose response calculation. The maximum percentage of protein knock-down was determined by dividing the pg/mL at each treated siNA concentration by the pg/mL of the control treated cells at the same concentration of siNA. This number was then converted to a percentage to give the percent of protein remaining.
# Various siNAs were also evaluated for their potential to knock-down NGFβ protein using an ELISA assay. Six siNAs were tested in an NGFβ ELISA assay across a range of concentrations of siNAs (200 fM to 3 nM) and the level of reduction of protein was determined relative to treatment of the cells with identical concentrations of the negative universal control siNA (UC3) (see Table 6).
# NGFβ mRNA = NGFβ mRNA knock-down in Calu-1 cells (RNAiMax transfection, Taqman RT-PCR); type: cell-based, human; details: for Primary Screen % KD (10 nM) / IC50 / Maximum % KD in DRC: human CaLu-1 cells; for Primary Screen % KD (10 nM): mean ± S.D. of four experiments; for IC50 / Maximum % KD in DRC: dose response 0.083fM to 30 nM, mean ± S.D.; for % KD in CaLu-1 Cells: human Calu-1 cells, 10 nM siNA, 24 hrs post-transfection, relative to non-targeting control, normalized to GAPDH
# Experimental: Calu-1 (human; ATCC cat# HTB-54): Cells were cultured at 37° C. in the presence of 5% CO2 and grown in McCoy's 5a medium supplemented with fetal bovine serum at a final concentration of 10% and 100 μg/mL of streptomycin and 100 U/mL penicillin.
# All transfections were performed using RNAiMax (Invitrogen Cat# 13778-150) as per the manufacturer's instructions.
# Cells were plated in all wells of a tissue-culture treated, 96-well plate at a final count of 5,000 cells/well in […], of appropriate culture media. Cells were cultured for 24 hours after plating at 37° C. in the presence of 5% CO2.
# After 24 hours, complexes containing siNA and RNAiMax were created as follows: A solution of RNAiMax diluted 33-fold in OPTI-MEM was prepared. In parallel, solutions of the siNAs for testing were prepared to a final concentration of 120 nM in OPTI-MEM. After incubation of RNAiMax/OPTI-MEM solution at room temperature for 5 min, an equal volume of the siRNA solution and the RNAiMax solution were added together for each of the siNAs.
# This solution was incubated at room temperature for 20 minutes. After incubation, 20 uL of the solution was added to each of the relevant wells.
# The final concentration of siNA in each well was 10 nM and the final volume of RNAiMax in each well was 0.3u1.
# The time of incubation with the RNAiMax-siNA complexes was 24 hours, unless otherwise indicated. There was no change in media between the transfection and harvesting of the cells unless otherwise indicated.
# Dose response curves were carried out in a similar fashion in 96-well plates, while maintaining a constant amount of RNAiMax in each transfection.
# RNA was extracted from a 96-well plate using the TaqMan® Gene Expression Cells-to-CT™ Kit (Cat# 4399002) with a modified protocol. Briefly, a 60 uL (1 plate) or 110 uL (2 plates) of the Lysis Solution with DNase I was dispensed into each well of the Lysis Buffer Plate (twin.tec full skirt plate). The lysis buffer and stop plates were stored at 4° C. until the cells were washed.
# The plate was spun at 1100 rpm for 5 minutes. The culture medium was aspirated and discarded from the wells of the culture plate. The lysis was performed automatically using a BioMek FX instrument and method. After the Biomek method was completed, the lysis plate was incubated for 2 min. at room temperature. The lysis plate can be stored for 2 hours at 4° C., or at −20° C. or −80° C. for two months.
# Each well of the reverse transcription plate required 10 uL of 2× reverse transcriptase Buffer, luL of 20× reverse transcription enzyme and 2 uL of nuclease-free water. The reverse transcription master mix was prepared by mixing 2× reverse transcription buffer, 20× reverse transcription enzyme mix, and nuclease-free water. 13 uL of the reverse transcription master mix was dispensed into each well of the reverse transcription plate (semi-skirted). A separate reverse transcription plate was prepared for each cell plate. The plate was loaded onto a Biomek NX or Biomek FX Dual-96 and the Biomek method was run. The program is programmed to automatically added 7 uL of lysate from the cell lysis procedure described above into each well of the reverse transcription plate. The plate is sealed and spun on a centrifuge (1000 rpm for 30 seconds) to settle the contents to the bottom of the reverse transcription plate. The plate is placed in a thermocycler at 37° C. for 60 min, 95° C. for 5 min, and 4° C. until the plate is removed from the thermocycler. Upon removal, if not used immediately, the plate was frozen at −20° C.
# A series of probes and primers were used to detect the various mRNA transcripts of the genes of NGFβ, BDNF and GAPDH in human cell lines. All the Taqman probes and primers for the experiments here-in described were supplied as pre-validated sets by Applied Biosystems, Inc. (see Table 3). The assays were performed on an ABI 7900 instrument, according to the manufacturer's instructions. […]
# NGF = target: T1, NGF (Homo sapiens, UniProt P01138); details: 440 patients, moderate-severe OA knee pain, 100 or 200 mcg/kg; 26% of patients given placebo; cited from earlier work
# T1 construct: host or cells: patients (in vivo)
# T1 sequence (P01138 122-241): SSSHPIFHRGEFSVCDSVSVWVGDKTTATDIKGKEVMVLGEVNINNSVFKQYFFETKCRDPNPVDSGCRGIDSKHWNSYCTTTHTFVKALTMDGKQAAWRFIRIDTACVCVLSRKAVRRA
Substance,Max % Protein Reduction at 3 nM (NGFβ protein),IC50 (NGFβ protein),Primary Screen % KD (10 nM) (NGFβ mRNA),IC50 (NGFβ mRNA),Maximum % KD in DRC (NGFβ mRNA),% KD in CaLu-1 Cells (NGFβ mRNA),patients with 50% decline in pain (NGF)
"25413-DC: siNA duplex, NGFβ target site 153; sense B cuGAGGuGcAuAGcGuAAu TTB (SEQ ID NO: 51), antisense AUUAcGcuAuGcAccucAGUU (SEQ ID NO: 52) (sense CUGAGGUGCAUAGCGUAAUTT; antisense AUUACGCUAUGCACCUCAGUU; sense: DNA at AGT, 2'-fluoro at CU, [invAb] at 5' end, 3' end, backbone not given here; antisense: sugars from the 5' end rrrmfmffmfmfmffffmmmm, backbone not given here)",77%,0.253 nM,76 ± 6%,38 ± 35 pM,69 ± 8%,68%,–
"25416-DC: siNA duplex, NGFβ target site 771; sense B GuAccAcGAcucAcAccuu TTB (SEQ ID NO: 57), antisense AAGGuGuGAGucGuGGuAcUU (SEQ ID NO: 58) (sense GUACCACGACUCACACCUUTT; antisense AAGGUGUGAGUCGUGGUACUU; sense: DNA at AGT, 2'-fluoro at CU, [invAb] at 5' end, 3' end, backbone not given here; antisense: sugars from the 5' end rrrmfmfmmmffmfmmfmfmm, backbone not given here)",89%,0.096 nM,80 ± 3%,35 ± 33 pM,61 ± 7%,69%,–
"25417-DC: siNA duplex, NGFβ target site 655; sense B GGuGAAcAuuAAcAAcAGu TTB (SEQ ID NO: 59), antisense ACUGuuGuuAAuGuucAccUU (SEQ ID NO: 60) (sense GGUGAACAUUAACAACAGUTT; antisense ACUGUUGUUAAUGUUCACCUU; sense: DNA at AGT, 2'-fluoro at CU, [invAb] at 5' end, 3' end, backbone not given here; antisense: sugars from the 5' end rrrmffmffmmfmfffmffmm, backbone not given here)",77%,0.303 nM,71 ± 2%,71 ± 46 pM,61 ± 2%,68%,–
Tanezumab,–,–,–,–,–,–,approximately 75%
"25422-DC: siNA duplex, NGFβ target site 171; sense B uGuccAuGuuGuucuAcAc TTB (SEQ ID NO: 69), antisense GUGuAGAAcAAcAuGGAcAUU (SEQ ID NO: 70) (sense UGUCCAUGUUGUUCUACACTT; antisense GUGUAGAACAACAUGGACAUU; sense: DNA at AGT, 2'-fluoro at CU, [invAb] at 5' end, 3' end, backbone not given here; antisense: sugars from the 5' end rrrfmmmmfmmfmfmmmfmmm, backbone not given here)",77%,0.395 nM,72 ± 11%,60 ± 45 pM,61 ± 9%,72%,–
"25425-DC: siNA duplex, NGFβ target site 181; sense B GuucuAcAcucuGAucAcA TTB (SEQ ID NO: 75), antisense UGUGAucAGAGuGuAGAAcUU (SEQ ID NO: 76) (sense GUUCUACACUCUGAUCACATT; antisense UGUGAUCAGAGUGUAGAACUU; sense: DNA at AGT, 2'-fluoro at CU, [invAb] at 5' end, 3' end, backbone not given here; antisense: sugars from the 5' end rrrmmffmmmmfmfmmmmfmm, backbone not given here)",87%,0.074 nM,83 ± 6%,20 ± 19 pM,72 ± 1%,80%,–
"25424-DC: siNA duplex, NGFβ target site 176; sense B AuGuuGuucuAcAcucuGA TTB (SEQ ID NO: 73), antisense UCAGAGuGuAGAAcAAcAuUU (SEQ ID NO: 74) (sense AUGUUGUUCUACACUCUGATT; antisense UCAGAGUGUAGAACAACAUUU; sense: DNA at AGT, 2'-fluoro at CU, [invAb] at 5' end, 3' end, backbone not given here; antisense: sugars from the 5' end rrrmmmfmfmmmmfmmfmfmm, backbone not given here)",85%,0.108 nM,82 ± 9%,50 ± 55 pM,72 ± 5%,78%,–
